Source: PubChem BioAssay AID1845213 (Molecular Pharmacology Branch, DTP, NCI, 2023)
Where “and” joins values, the source holds several entries; their conditions need not be identical. Equal values may be shown once. Values belong to the compound of their own block, whether it stands above or below them. Calls of active or inactive are those of the source. Rule for the calls: active = viability on the fitted dose curve at most 10% of control; inactive = the rest.

System: NCI-H841 complex tumor spheroid viability
Experiment: Anticancer human tumor NCI-H841 cell line growth inhibition;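 for IC50: spheroids exposed to compounds for 7 days before readout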;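 for viability, T/C: spheroids exposed to compounds for 7 days before readout; 100% = DMSO vehicle control wells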
Settings: for viability, T/C: stronger effect = lower value
Procedure, shortened: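 Single agents and combinations were tested on spheroids built from tumor cells plus HUVEC and hMSC, at half-log dilutions starting at or near clinical Cmax, else 10 microM; final DMSO 0.25% (v/v).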

[1] = curve of first compound, second compound 0.003 µM
[2] = curve of first compound, second compound 0.00949 µM
[3] = curve of first compound, second compound 0.03 µM
[4] = curve of first compound, second compound 0.0949 µM
[5] = curve of first compound, second compound 0.3 µM
[6] = second compound 0.003 µM, first compound 0.0316 µM
[7] = second compound 0.003 µM, first compound 0.1 µM
[8] = second compound 0.003 µM, first compound 0.316 µM
[9] = second compound 0.003 µM, first compound 1 µM
[10] = second compound 0.003 µM, first compound 3.16 µM
[11] = second compound 0.003 µM, first compound 10 µM
[12] = second compound 0.00949 µM, first compound 0.0316 µM
[13] = second compound 0.00949 µM, first compound 0.1 µM
[14] = second compound 0.00949 µM, first compound 0.316 µM
[15] = second compound 0.00949 µM, first compound 1 µM
[16] = second compound 0.00949 µM, first compound 3.16 µM
[17] = second compound 0.00949 µM, first compound 10 µM
[18] = second compound 0.03 µM, first compound 0.0316 µM
[19] = second compound 0.03 µM, first compound 0.1 µM
[20] = second compound 0.03 µM, first compound 0.316 µM
[21] = second compound 0.03 µM, first compound 1 µM
[22] = second compound 0.03 µM, first compound 3.16 µM
[23] = second compound 0.03 µM, first compound 10 µM
[24] = second compound 0.0949 µM, first compound 0.0316 µM
[25] = second compound 0.0949 µM, first compound 0.1 µM
[26] = second compound 0.0949 µM, first compound 0.316 µM
[27] = second compound 0.0949 µM, first compound 1 µM
[28] = second compound 0.0949 µM, first compound 3.16 µM
[29] = second compound 0.0949 µM, first compound 10 µM
[30] = second compound 0.3 µM, first compound 0.0316 µM
[31] = second compound 0.3 µM, first compound 0.1 µM
[32] = second compound 0.3 µM, first compound 0.316 µM
[33] = second compound 0.3 µM, first compound 1 µM
[34] = second compound 0.3 µM, first compound 3.16 µM
[35] = second compound 0.3 µM, first compound 10 µM
[36] = curve of first compound, second compound 30 pM
[37] = curve of first compound, second compound 94.9 pM
[38] = curve of first compound, second compound 0.0003 µM
[39] = curve of first compound, second compound 0.000949 µM

SMILES: CC1COCCN1c1cc(-c2ccnn2C)c2ccnc(-c3ccn[nH]3)c2n1 (centres undefined) + CC[C@@]1(O)C(=O)OCc2c1cc1n(c2=O)Cc2cc3c(CN(C)C)c(O)ccc3nc2-1
IC50 [1]: < 31.6 nM
IC50 [2]: < 31.6 nM
IC50 [3]: < 31.6 nM
IC50 [4]: < 31.6 nM
IC50 [5]: < 31.6 nM
viability, T/C [6]: 8.47%
viability, T/C [7]: 2.38%
viability, T/C [8]: 1.1%
viability, T/C [9]: 1.26%
viability, T/C [10]: 1.27%
viability, T/C [11]: 1.76%
viability, T/C [12]: 1.08%
viability, T/C [13]: 0.71%
viability, T/C [14]: 0.73%
viability, T/C [15]: 0.86%
viability, T/C [16]: 1.2%
viability, T/C [17]: 1.56%
viability, T/C [18]: 0.77%
viability, T/C [19]: 0.57%
viability, T/C [20]: 0.65%
viability, T/C [21]: 0.82%
viability, T/C [22]: 1.08%
viability, T/C [23]: 1.32%
viability, T/C [24]: 0.39%
viability, T/C [25]: 0.37%
viability, T/C [26]: 0.5%
viability, T/C [27]: 0.56%
viability, T/C [28]: 0.78%
viability, T/C [29]: 1.13%
viability, T/C [30]: 0.42%
viability, T/C [31]: 0.41%
viability, T/C [32]: 0.4%
viability, T/C [33]: 0.5%
viability, T/C [34]: 0.54%
viability, T/C [35]: 0.72%

SMILES: COc1ccc([C@@H](O)c2cc(-c3ncnc4cc(N5CCOCC5)ccc34)c(F)cc2Cl)nn1
viability, T/C (compound 0.0316 µM): 97.7% and 102% and 99.6%
viability, T/C (compound 0.1 µM): 101% and 104% and 99.6%
viability, T/C (compound 0.316 µM): 95.7% and 99% and 96.2%
outcome (compound 1 µM): inactive
viability, T/C (compound 1 µM): 93.4% and 89.9%
viability, T/C (compound 3.16 µM): 67% and 34.4% and 73.9%
viability, T/C (compound 10 µM): 13.7% and 8.86% and 17%
IC50 (curve of compound): 4570 nM and 2150 nM and 5090 nM

SMILES: [2H]c1nc(C)nc([2H])c1-c1cc(NC[C@@H](C)c2cccc3c(C(=O)NC)ccnc23)ncn1
viability, T/C (compound 0.0316 µM): 100% and 97.5% and 102%
viability, T/C (compound 0.1 µM): 99.4% and 97.2% and 100%
viability, T/C (compound 0.316 µM): 98.4% and 102% and 98.1%
viability, T/C (compound 1 µM): 98.7% and 99.9% and 96.8%
viability, T/C (compound 3.16 µM): 98.2% and 103% and 95.4%
viability, T/C (compound 10 µM): 92.6% and 102% and 96.8%
IC50 (curve of compound): > 10000 nM

IC50 (compound alone, run of 11/07/2019): > 100000 nM and 17400 nM
SMILES: Cn1nnc2c(C(N)=O)ncn2c1=O
viability, T/C (compound 1 µM): 101% [middle of 9 runs]
viability, T/C (compound 3.16 µM): 101% [middle of 10 runs]
viability, T/C (compound 10 µM): 101% [middle of 10 runs]

SMILES: COc1ccc([C@@H](O)c2cc(-c3ncnc4cc(N5CCOCC5)ccc34)c(F)cc2Cl)nn1 + COc1cc2c(cc1O)CCNC21CSC2c3c(OC(C)=O)c(C)c4c(c3C(COC1=O)N1C(O)C3Cc5cc(C)c(OC)c(O)c5C(C21)N3C)OCO4
IC50 [36]: 2950 nM
IC50 [37]: 1040 nM
IC50 [38]: < 31.6 nM
IC50 [39]: < 31.6 nM
IC50 [1]: < 31.6 nM
viability, T/C (second compound 30 pM, first compound 0.0316 µM): 102%
viability, T/C (second compound 30 pM, first compound 0.1 µM): 99.6%
viability, T/C (second compound 30 pM, first compound 0.316 µM): 96%
viability, T/C (second compound 30 pM, first compound 1 µM): 86.7%
viability, T/C (second compound 30 pM, first compound 3.16 µM): 47.5%
viability, T/C (second compound 30 pM, first compound 10 µM): 4.01%
viability, T/C (second compound 94.9 pM, first compound 0.0316 µM): 99.4%
viability, T/C (second compound 94.9 pM, first compound 0.1 µM): 94.5%
viability, T/C (second compound 94.9 pM, first compound 0.316 µM): 86.4%
viability, T/C (second compound 94.9 pM, first compound 1 µM): 50.3%
viability, T/C (second compound 94.9 pM, first compound 3.16 µM): 16.4%
viability, T/C (second compound 94.9 pM, first compound 10 µM): 1.62%
viability, T/C (second compound 0.0003 µM, first compound 0.0316 µM): 31.4%
viability, T/C (second compound 0.0003 µM, first compound 0.1 µM): 34.4%
viability, T/C (second compound 0.0003 µM, first compound 0.316 µM): 16.9%
viability, T/C (second compound 0.0003 µM, first compound 1 µM): 4.22%
viability, T/C (second compound 0.0003 µM, first compound 3.16 µM): 0.62%
viability, T/C (second compound 0.0003 µM, first compound 10 µM): 0.12%
viability, T/C (second compound 0.000949 µM, first compound 0.0316 µM): 2.69%
viability, T/C (second compound 0.000949 µM, first compound 0.1 µM): 2.87%
viability, T/C (second compound 0.000949 µM, first compound 0.316 µM): 1.76%
viability, T/C (second compound 0.000949 µM, first compound 1 µM): 0.09%
viability, T/C (second compound 0.000949 µM, first compound 3.16 µM): 0.02%
viability, T/C (second compound 0.000949 µM, first compound 10 µM): 0.14%
viability, T/C [6]: 0.13%
viability, T/C [7]: 0.12%
viability, T/C [8]: 0.14%
viability, T/C [9]: 0.16%
viability, T/C [10]: 0.19%
viability, T/C [11]: 0.27%

SMILES: COc1cc(C)[nH]c(=O)c1CN1CCc2c(Cl)cc(C(OC)C3COC3)c(Cl)c2C1=O (centres undefined) + CC[C@@]1(O)C(=O)OCc2c1cc1n(c2=O)Cc2cc3c(CN(C)C)c(O)ccc3nc2-1
IC50 [1]: 3820 nM
IC50 [2]: 231 nM
IC50 [3]: < 31.6 nM
IC50 [4]: < 31.6 nM
IC50 [5]: < 31.6 nM
viability, T/C [6]: 86.1%
viability, T/C [7]: 72.1%
viability, T/C [8]: 62.9%
viability, T/C [9]: 56.6%
viability, T/C [10]: 49.7%
viability, T/C [11]: 47.5%
viability, T/C [12]: 82.3%
viability, T/C [13]: 62.6%
viability, T/C [14]: 43.2%
viability, T/C [15]: 38.2%
viability, T/C [16]: 32.5%
viability, T/C [17]: 27.9%
viability, T/C [18]: 3.53%
viability, T/C [19]: 1.86%
viability, T/C [20]: 4.87%
viability, T/C [21]: 2.31%
viability, T/C [22]: 2.71%
viability, T/C [23]: 2.37%
viability, T/C [24]: 1.65%
viability, T/C [25]: 1.4%
viability, T/C [26]: 1.34%
viability, T/C [27]: 1.12%
viability, T/C [28]: 0.95%
viability, T/C [29]: 0.94%
viability, T/C [30]: 1.75%
viability, T/C [31]: 1.53%
viability, T/C [32]: 1.29%
viability, T/C [33]: 0.89%
viability, T/C [34]: 1.03%
viability, T/C [35]: 0.98%

SMILES: O=C(c1cc(Cc2n[nH]c(=O)c3ccccc23)ccc1F)N1CCN(C(=O)C2CC2)CC1 + COc1cc2c(cc1O)CCNC21CSC2c3c(OC(C)=O)c(C)c4c(c3C(COC1=O)N1C(O)C3Cc5cc(C)c(OC)c(O)c5C(C21)N3C)OCO4
IC50 [36]: 4580 nM
IC50 [37]: 3050 nM
IC50 [38]: < 94.9 nM
IC50 [39]: < 94.9 nM
IC50 [1]: < 94.9 nM
viability, T/C (second compound 30 pM, first compound 0.0949 µM): 107%
viability, T/C (second compound 30 pM, first compound 0.3 µM): 105%
viability, T/C (second compound 30 pM, first compound 0.949 µM): 101%
viability, T/C (second compound 30 pM, first compound 3 µM): 77%
viability, T/C (second compound 30 pM, first compound 9.49 µM): 3.12%
viability, T/C (second compound 30 pM, first compound 30 µM): 1.74%
viability, T/C (second compound 94.9 pM, first compound 0.0949 µM): 97.5%
viability, T/C (second compound 94.9 pM, first compound 0.3 µM): 97.8%
viability, T/C (second compound 94.9 pM, first compound 0.949 µM): 87.4%
viability, T/C (second compound 94.9 pM, first compound 3 µM): 52.1%
viability, T/C (second compound 94.9 pM, first compound 9.49 µM): 1.93%
viability, T/C (second compound 94.9 pM, first compound 30 µM): 1.27%
viability, T/C (second compound 0.0003 µM, first compound 0.0949 µM): 27.4%
viability, T/C (second compound 0.0003 µM, first compound 0.3 µM): 22.1%
viability, T/C (second compound 0.0003 µM, first compound 0.949 µM): 18.2%
viability, T/C (second compound 0.0003 µM, first compound 3 µM): 2.51%
viability, T/C (second compound 0.0003 µM, first compound 9.49 µM): 1.17%
viability, T/C (second compound 0.0003 µM, first compound 30 µM): 0.76%
viability, T/C (second compound 0.000949 µM, first compound 0.0949 µM): 3.77%
viability, T/C (second compound 0.000949 µM, first compound 0.3 µM): 4.04%
viability, T/C (second compound 0.000949 µM, first compound 0.949 µM): 2.93%
viability, T/C (second compound 0.000949 µM, first compound 3 µM): 0.82%
viability, T/C (second compound 0.000949 µM, first compound 9.49 µM): 0.32%
viability, T/C (second compound 0.000949 µM, first compound 30 µM): 0.11%
viability, T/C (second compound 0.003 µM, first compound 0.0949 µM): 7.31%
viability, T/C (second compound 0.003 µM, first compound 0.3 µM): 0.2%
viability, T/C (second compound 0.003 µM, first compound 0.949 µM): 0.13%
viability, T/C (second compound 0.003 µM, first compound 3 µM): 0.12%
viability, T/C (second compound 0.003 µM, first compound 9.49 µM): 0.14%
viability, T/C (second compound 0.003 µM, first compound 30 µM): 0.29%
